Patent US10501518B2 (priority 2013, dated 2019)
Starred links: 1 amine or outer side, 2 acyl side, 3 side chain; linkers in the order of their positions; H or OH if unused. Non-standard residues stand in square brackets, D forms with d. Residues, ends and D or L forms follow the SMILES beside them. *: point of attachment. NH(1S,2S-2-CONH2-cPent) = NC(=O)[C@H]1CCC[C@@H]1N*; X12 = O=C([C@H]1CCC[C@@H]1N[*:1])[*:2]; X13 = O=C([C@H]1CNC[C@@H]1N[*:1])[*:2]; β3hE = N[C@@H](CCC(=O)O)CC(=O)O; β3hD = NC(CC(=O)O)CC(=O)O

How the values were obtained:
[1] = biological target: T1, R^0 form of human PTHR-1 (Homo sapiens, UniProt Q03431); assay: Radio-ligand competition binding to R^0 form of human PTHR-1 (COS-7 membranes, 125I-PTH(1-34) tracer, GTPγS)
T1 construct: expressed in transfected cells; host or cells: COS-7
T1 sequence (Q03431 27-593): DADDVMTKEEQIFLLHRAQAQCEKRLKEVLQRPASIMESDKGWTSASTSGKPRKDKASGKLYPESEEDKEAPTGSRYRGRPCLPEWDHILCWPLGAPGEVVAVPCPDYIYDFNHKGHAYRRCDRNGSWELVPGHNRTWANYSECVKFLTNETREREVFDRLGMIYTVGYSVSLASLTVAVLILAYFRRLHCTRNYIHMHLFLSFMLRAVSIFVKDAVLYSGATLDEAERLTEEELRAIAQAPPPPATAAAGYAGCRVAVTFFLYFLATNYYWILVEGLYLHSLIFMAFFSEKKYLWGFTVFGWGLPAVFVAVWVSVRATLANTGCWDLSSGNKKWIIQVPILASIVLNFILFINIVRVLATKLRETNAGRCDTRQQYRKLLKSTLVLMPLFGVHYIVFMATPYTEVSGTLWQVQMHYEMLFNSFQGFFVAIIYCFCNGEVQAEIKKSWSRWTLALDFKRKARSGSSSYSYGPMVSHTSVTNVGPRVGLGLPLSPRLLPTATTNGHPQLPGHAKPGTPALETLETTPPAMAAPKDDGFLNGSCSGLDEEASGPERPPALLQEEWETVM
Description: (§1) Data are means (±SEM) of n≥4 experiments, each performed in duplicate.

[2] = biological target: T2, WT human PTHR-1 (Homo sapiens, UniProt Q03431); assay: cAMP GloSensor dose-response in GP-2.3 cells expressing human PTHR-1; type: cell-based; conditions: for EC50 / cAMP (hPTHR-1) Max: Table 1; for EC50 / Max: GP-2.3 cells; for EC50: read-out: cAMP (hPTHR-1) EC50; for cAMP (hPTHR-1) Max: luminescence counts per second relative to PTH(1-34); for cAMP (hPTHR-1) Max / Max: 12-16 minutes after ligand addition; for Max: Table 6, mean ± SEM; for agonist activity at hPTHR-1 (cAMP response), in words: maximum cAMP response compared with PTH(1-34)
T2 construct: bioactivity of the resulting compound in full-length hPTHR-1 and a truncated version; expressed in transfected cells
T2 sequence (Q03431 27-593): T1 sequence (Q03431 27-593)
Protocol: FIGS. 8A, 8B, and 8C constitute a series of graphs depicting cAMP responses in GP-2.3 cells expressing wild-type human parathyroid hormone receptor 1 (PTHR-1-WT). […] Data are means (±SEM) of n>4 experiments, each performed in duplicate.
(§2) For cAMP dose-response assays, monolayers of confluent HEK 293 cells were pre-incubated with buffer containing d-luciferin (0.5 mM) in 96 well plates at room temperature until a stable baseline level of luminescence was established (30 min). Varying concentrations of agonist were then added, and the time course of luminescence response was recorded using a Perkin Elmer plate reader following α/β-peptide addition.

[3] = biological target: T3, WT rat PTHR-1 (Rattus norvegicus, UniProt P25961); assay: cAMP GloSensor dose-response in GR-35 cells expressing rat PTHR-1; type: cell-based; conditions: Table 7; GR-35 cells, 12-16 minutes after ligand addition; mean ± SEM
T3 construct: expressed in transfected cells
T3 sequence (P25961 27-591): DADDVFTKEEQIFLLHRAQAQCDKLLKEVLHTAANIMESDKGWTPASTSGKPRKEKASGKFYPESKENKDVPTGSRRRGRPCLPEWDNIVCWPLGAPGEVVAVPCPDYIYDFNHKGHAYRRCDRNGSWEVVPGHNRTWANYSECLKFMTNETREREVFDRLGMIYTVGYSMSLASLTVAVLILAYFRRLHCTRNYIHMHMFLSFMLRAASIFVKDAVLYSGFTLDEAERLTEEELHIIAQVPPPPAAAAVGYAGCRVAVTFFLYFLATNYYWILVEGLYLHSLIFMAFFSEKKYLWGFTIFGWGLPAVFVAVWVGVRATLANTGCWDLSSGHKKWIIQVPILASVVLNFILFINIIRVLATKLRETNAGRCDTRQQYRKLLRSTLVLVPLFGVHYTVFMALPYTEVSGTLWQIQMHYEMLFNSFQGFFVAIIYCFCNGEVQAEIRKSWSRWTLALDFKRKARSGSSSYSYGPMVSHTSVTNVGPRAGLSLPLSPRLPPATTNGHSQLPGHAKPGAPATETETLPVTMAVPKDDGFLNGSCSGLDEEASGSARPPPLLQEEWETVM
Protocol: FIGS. 9A, 9B, and 9C constitute a series of graphs depicting cAMP responses in GR-35 cells expressing rat PTHR-1-WT. […] Data are means (±SEM) of n>4 experiments, each performed in duplicate.
as §2

[4] = biological target: T4, R^0 form of rat PTHR-1 (Rattus norvegicus, UniProt P25961); assay: Radio-ligand competition binding to R^0 form of rat PTHR-1; conditions: Table 5; rat PTHR-1; mean ± SEM; read-out: R^0 -log (IC50) (converted)
T4 construct: expressed in transfected cells; host or cells: COS-7
T4 sequence (P25961 27-591): T3 sequence (P25961 27-591)
Description: as §1

[5] = biological target: T5, PTHR (Homo sapiens, UniProt Q03431); assay: cAMP induction potency, N-terminal modifications and cyclic constraints (Tables 9, 10, 13); type: cell-based
T5 construct: expressed in transfected cells
T5 sequence (Q03431 27-593): T1 sequence (Q03431 27-593)

Compound | IC50 ([1]; Table 1, COS-7 membranes, 125I-PTH(1-34) tracer, GTPγS, read-out: R^0 IC50, nM, Binding (hPTHR-1)) [nM] | EC50 [2] [nM] | cAMP (hPTHR-1) Max [2] | Max [2] | agonist activity at hPTHR-1 (cAMP response), in words [2] | Max [3] | IC50 [4] [nM] | affinity for the R^0 state of hPTHR-1, in words ([1]; compared with PTH(1-34)) | Fold PTH ([5]; Table 9) | EC50 ([5]; Table 9, read-out: EC50, nM (cAMP induction potency)) [nM] | Fold PTH ([5]; Table 10)
CC[C@H](C)[C@H](NC(=O)[C@H](CCC(=O)O)NC(=O)[C@H](CO)NC(=O)[C@@H](NC(=O)[C@@H](N)CO)C(C)C)C(=O)N[C@@H](CCC(N)=O)C(=O)N[C@@H](CC(C)C)C(=O)N[C@@H](CCSC)C(=O)N[C@@H](Cc1c[nH]cn1)C(=O)N[C@@H](CC(N)=O)C(=O)N[C@@H](CC(C)C)C(=O)NCC(=O)N[C@@H](CCCCN)C(=O)N[C@@H](Cc1c[nH]cn1)C(=O)N[C@@H](CC(C)C)C(=O)N[C@@H](CC(N)=O)C(=O)N[C@@H](CO)C(=O)N[C@@H](CCSC)C(=O)N[C@@H](CCC(=O)O)C(=O)N[C@@H](CCCNC(=N)N)C(=O)N[C@H](C(=O)N[C@@H](CCC(=O)O)C(=O)N[C@@H](Cc1c[nH]c2ccccc12)C(=O)N[C@H](CC(=O)N[C@@H](CCCNC(=N)N)C(=O)N[C@@H](CCCCN)C(=O)N[C@@H](CCCCN)C(=O)N[C@H](CC(=O)N[C@@H](CCC(N)=O)C(=O)N[C@@H](CC(=O)O)C(=O)N[C@H](C(=O)N[C@@H](CCC(N)=O)CC(=O)N[C@@H](CC(N)=O)C(=O)N[C@@H](Cc1ccccc1)C(N)=O)C(C)C)CC(C)C)CC(C)C)C(C)C [B3] | 80 | 0.11 | 1.08 | 234 ± 16 luminescence counts per second × 10^−3 | full agonists of hPTHR-1 | 69 ± 78 luminescence counts per second × 10−3 | – | – | – | – | –
CC[C@H](C)[C@H](NC(=O)[C@H](CCC(=O)O)NC(=O)[C@H](CO)NC(=O)[C@@H](NC(=O)[C@@H](N)CO)C(C)C)C(=O)N[C@@H](CCC(N)=O)C(=O)N[C@@H](CC(C)C)C(=O)N[C@@H](CCSC)C(=O)N[C@@H](Cc1c[nH]cn1)C(=O)N[C@@H](CC(N)=O)C(=O)N[C@@H](CC(C)C)C(=O)NCC(=O)N[C@@H](CCCCN)C(=O)N[C@@H](Cc1c[nH]cn1)C(=O)N[C@@H](CC(C)C)C(=O)N[C@@H](CC(N)=O)C(=O)N[C@@H](CO)C(=O)N[C@@H](CCSC)C(=O)N[C@@H](CCC(=O)O)C(=O)N[C@@H](CCCNC(=N)N)C(=O)N[C@H](C(=O)N[C@@H](CCC(=O)O)C(=O)N[C@@H](Cc1c[nH]c2ccccc12)C(=O)N[C@@H](CC(C)C)C(=O)N[C@@H](CCCNC(=N)N)CC(=O)N[C@@H](CCCCN)C(=O)N[C@@H](CCCCN)C(=O)N[C@@H](CC(C)C)C(=O)N[C@@H](CCC(N)=O)CC(=O)N[C@@H](CC(=O)O)C(=O)N[C@H](C(=O)N[C@@H](Cc1c[nH]cn1)C(=O)N[C@@H](CC(N)=O)CC(=O)N[C@@H](Cc1ccccc1)C(N)=O)C(C)C)C(C)C [C3] | – | 0.58 | 1.03 | 223 ± 14 luminescence counts per second × 10^−3 | full agonists of hPTHR-1 | 68 ± 77 luminescence counts per second × 10−3 | 4.57 | – | – | – | –
CC[C@H](C)[C@H](NC(=O)[C@H](CCC(=O)O)NC(=O)[C@H](CO)NC(=O)[C@@H](NC(=O)[C@@H](N)CO)C(C)C)C(=O)N[C@@H](CCC(N)=O)C(=O)N[C@@H](CC(C)C)C(=O)N[C@@H](CCSC)C(=O)N[C@@H](Cc1c[nH]cn1)C(=O)N[C@@H](CC(N)=O)C(=O)N[C@@H](CC(C)C)C(=O)NCC(=O)N[C@@H](CCCCN)C(=O)N[C@@H](Cc1c[nH]cn1)C(=O)N[C@@H](CC(C)C)C(=O)N[C@@H](CC(N)=O)C(=O)N[C@@H](CO)C(=O)N[C@@H](CCSC)C(=O)N[C@@H](CCC(=O)O)C(=O)N[C@@H](CCCNC(=N)N)C(=O)N[C@H](C(=O)N[C@@H](CCC(=O)O)C(=O)N[C@@H](Cc1c[nH]c2ccccc12)C(=O)N[C@@H](CC(C)C)C(=O)N[C@@H](CCCNC(=N)N)C(=O)N[C@@H](CCCCN)CC(=O)N[C@@H](CCCCN)C(=O)N[C@@H](CC(C)C)C(=O)N[C@@H](CCC(N)=O)C(=O)N[C@@H](CC(=O)O)CC(=O)N[C@H](C(=O)N[C@@H](Cc1c[nH]cn1)C(=O)N[C@@H](CC(N)=O)C(=O)N[C@H](CC(N)=O)Cc1ccccc1)C(C)C)C(C)C [D3] | – | – | 1.04 | 226 ± 15 luminescence counts per second × 10^−3 | full agonists of hPTHR-1 | 65 ± 62 luminescence counts per second × 10−3 | – | matches PTH(1-34) | – | – | –
CC[C@H](C)[C@H](NC(=O)[C@H](CCC(=O)O)NC(=O)[C@H](CO)NC(=O)[C@@H](NC(=O)[C@@H](N)CO)C(C)C)C(=O)N[C@@H](CCC(N)=O)C(=O)N[C@@H](CC(C)C)C(=O)N[C@@H](CCSC)C(=O)N[C@@H](Cc1c[nH]cn1)C(=O)N[C@@H](CC(N)=O)C(=O)N[C@@H](CC(C)C)C(=O)NCC(=O)N[C@@H](CCCCN)C(=O)N[C@H]1CCC[C@@H]1C(=O)N[C@@H](CC(C)C)C(=O)N[C@@H](CC(N)=O)C(=O)N[C@@H](CO)C(=O)N[C@H]1CCC[C@@H]1C(=O)N[C@@H](CCC(=O)O)C(=O)N[C@@H](CCCNC(=N)N)C(=O)N[C@H](C(=O)N[C@@H](CCC(=O)O)CC(=O)N[C@@H](Cc1c[nH]c2ccccc12)C(=O)N[C@@H](CC(C)C)C(=O)N[C@@H](CCCNC(=N)N)C(=O)N[C@H]1CNC[C@@H]1C(=O)N[C@@H](CCCCN)C(=O)N[C@@H](CC(C)C)C(=O)N[C@@H](CCC(N)=O)C(=O)N[C@@H](CC(=O)O)CC(=O)N[C@H](C(=O)N[C@@H](Cc1c[nH]cn1)C(=O)N[C@@H](CC(N)=O)C(=O)N[C@H]1CCC[C@@H]1C(N)=O)C(C)C)C(C)C [cycD6, SVSEIQLMHNLGKXLNSXERVEWLRZKLQDVHNX-NH2] (H-SVSEIQLMHNLGK[X12]LNS[X12]ERV[β3hE]WLR[X13]KLQ[β3hD]VHN-{NH(1S,2S-2-CONH2-cPent)}; N-terminus assumed) | – | – | – | – | – | – | – | – | 1.3 | 0.1 ± 0.01 | –
AVAEIQXMHQ^hRAKXLNSXRRVEWLRZKLQDVHNX-NH2 [M-cycD6] | – | – | – | – | – | – | – | – | – | – | 4.0
